Here are results for 15 molecules from patent US8242118B2, “Arylsulfonamide derivatives for use as CCR3 antagonists in the treatment of inflammatory and immunological disorders” (Axikin Pharmaceuticals Inc., priority 2001, dated 2012).

Each structure is given as a SMILES string.

One data set addresses T1, Human CCR3 (Homo sapiens, UniProt P51677).
T1 construct: The cloned CCR3 cDNA was constructed with pcDNA3 vector and transfected into a IC562 cell line; expressed in transfected cells
T1 sequence (P51677 1-355): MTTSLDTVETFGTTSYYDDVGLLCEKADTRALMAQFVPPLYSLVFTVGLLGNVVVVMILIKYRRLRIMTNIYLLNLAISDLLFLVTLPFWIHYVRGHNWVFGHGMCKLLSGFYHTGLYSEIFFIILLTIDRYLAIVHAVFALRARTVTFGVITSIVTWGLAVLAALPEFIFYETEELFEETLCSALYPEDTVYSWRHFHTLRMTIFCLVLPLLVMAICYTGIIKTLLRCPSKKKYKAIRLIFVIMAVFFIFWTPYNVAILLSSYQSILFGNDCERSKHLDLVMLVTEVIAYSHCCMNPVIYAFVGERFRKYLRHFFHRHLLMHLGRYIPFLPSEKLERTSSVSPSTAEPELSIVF
The data set is described as follows: Receptor binding assay (RBA), [125I]-eotaxin. Particulars: human CCR3-transformed K562 cells, 0.1 nM [125I]-eotaxin; compounds of about 40 to 90% purity; read-out: Activity grade RBA (IC50 class). In short, it runs like this:
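Butyrate-pretreated (5 mM, 20-24 h) CCR3-transfected K562 cells incubated 1 h at room temperature with compound and 0.1 nM final [125I]-eotaxin in HEPES pH 7.6 buffer; bound radioactivity counted after filtration. Non-specific binding with 500 nM unlabeled eotaxin; IC50 from inhibition curve.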

As usually defined, the IC50 is the concentration needed to halve the response being measured. One may read the melting point as the temperature, or range, at which the solid turns liquid. Molecule `Cc1cc(C)c(C)c(Oc2ccc([N+](=O)[O-])cc2S(=O)(=O)N2CCNCC2)c1.Cl` [Example 1-65] registered a melting point of 187 °C. For the same molecule, on Human CCR3, the IC50 was under 1000 nM.
`Cc1ccc(C(C)C)c(Oc2ccc([N+](=O)[O-])cc2S(=O)(=O)N2CCNCC2)c1.Cl` [Example 1-66] gave a melting point of 193 °C. The IC50 on Human CCR3 lay in the range of 1000 to 10000 nM.
In turn, `Cl.O=[N+]([O-])c1ccc(Oc2c(F)c(F)cc(F)c2F)c(S(=O)(=O)N2CCNCC2)c1` [Example 1-74] returned a melting point of 104 °C. In addition, the IC50 on Human CCR3 was under 1000 nM.
For `O=[N+]([O-])c1ccc(Oc2cc(Br)cc(Br)c2)c(S(=O)(=O)N2CCNCC2)c1` [Example 1-76], the melting point is 205 °C. Further, at Human CCR3, the IC50 was under 1000 nM.
On the same counts, the results for `Cl.O=[N+]([O-])c1ccc(Oc2cc(Cl)cc(Cl)c2F)c(S(=O)(=O)N2CCNCC2)c1` [Example 1-77] are 263 °C and under 1000 nM.
On the same counts, the results for `Cc1cc(Oc2ccc([N+](=O)[O-])cc2S(=O)(=O)N2CCNCC2)cc(C)c1Cl` [Example 1-79] are 178 to 179 °C and under 1000 nM.
In turn, `Cc1ccc(Cl)c(Oc2ccc([N+](=O)[O-])cc2S(=O)(=O)N2CCNCC2)c1` [Example 1-80] yielded a melting point of 166 to 167 °C. Moreover, the IC50 on Human CCR3 was under 1000 nM.
`O=[N+]([O-])c1ccc(Oc2cc(Cl)ccc2Cl)c(S(=O)(=O)N2CCNCC2)c1` [Example 1-84] yielded a melting point of 179 to 180 °C. The half-maximal inhibitory concentration (IC50) at Human CCR3 is under 1000 nM.
The molecule `Cl.O=[N+]([O-])c1ccc(Oc2cc(Cl)cc(Cl)c2Cl)c(S(=O)(=O)N2CCNCC2)c1` [Example 1-86] gave a melting point of 188 to 189 °C. For the same molecule, the IC50 at Human CCR3 is under 1000 nM.
In turn, `O=C(O)C1CNCCN1S(=O)(=O)c1cc([N+](=O)[O-])ccc1Oc1cc(Cl)cc(Cl)c1` (stereo not drawn) [Example 1-87] gave a melting point of 240 to 241 °C. Besides, the IC50 on Human CCR3 was under 1000 nM.
For `Cc1cc(C)cc(Oc2ccc([N+](=O)[O-])cc2S(=O)(=O)N2CCN(CCO)CC2)c1` [Example 1-88], the melting point lay in the range of 163 to 164 °C. Moreover, the IC50 at Human CCR3 was under 1000 nM.
For `Cl.O=[N+]([O-])c1ccc(Oc2cc(Cl)cc(Cl)c2)c(S(=O)(=O)N2CCCNCC2)c1` [Example 1-91], in that order: 261 to 263 °C and under 1000 nM.
`Cl.N[C@H]1CCN(S(=O)(=O)c2cc([N+](=O)[O-])ccc2Oc2cc(Cl)cc(Cl)c2)C1` [Example 1-100] came in with a melting point of 256 to 258 °C. For the same molecule, the IC50 at Human CCR3 is under 1000 nM.
In the case of `Cc1cc(C)cc(Oc2ccc(NC(=O)Cc3ccccc3)cc2S(=O)(=O)N2CCNCC2)c1` [Example 7-1, N-[4-(3,5-dimethylphenoxy)-3-(1-piperazinylsulfonyl)phenyl]-2-phenylacetamide], the melting point was in the range of 228 to 230 °C. For the same molecule, the IC50 at Human CCR3 was over 10000 nM.
Regarding `CN(CCN1CCCCC1)S(=O)(=O)c1cc([N+](=O)[O-])ccc1Sc1cc(Cl)cc(Cl)c1` [Example 26-1, 2-[(3,5-dichlorophenyl)sulfanyl]-N-methyl-5-nitro-N-[2-(1-piperidinyl)ethyl]benzenesulfonamide], the melting point is 113 to 114 °C. Also, the IC50 at Human CCR3 was under 1000 nM.
